Here are results for nine compounds from patent US7351709B2, “Estrogen receptor ligands” (Wyeth, priority 2004, dated 2008).

The target in assay [1] is T1, ERα (Homo sapiens, UniProt P03372).
T1 construct: expressed in transfected cells; host or cells: HAECT-1 cells infected with Ad5-wt-ER adenovirus
T1 sequence (P03372 1-595): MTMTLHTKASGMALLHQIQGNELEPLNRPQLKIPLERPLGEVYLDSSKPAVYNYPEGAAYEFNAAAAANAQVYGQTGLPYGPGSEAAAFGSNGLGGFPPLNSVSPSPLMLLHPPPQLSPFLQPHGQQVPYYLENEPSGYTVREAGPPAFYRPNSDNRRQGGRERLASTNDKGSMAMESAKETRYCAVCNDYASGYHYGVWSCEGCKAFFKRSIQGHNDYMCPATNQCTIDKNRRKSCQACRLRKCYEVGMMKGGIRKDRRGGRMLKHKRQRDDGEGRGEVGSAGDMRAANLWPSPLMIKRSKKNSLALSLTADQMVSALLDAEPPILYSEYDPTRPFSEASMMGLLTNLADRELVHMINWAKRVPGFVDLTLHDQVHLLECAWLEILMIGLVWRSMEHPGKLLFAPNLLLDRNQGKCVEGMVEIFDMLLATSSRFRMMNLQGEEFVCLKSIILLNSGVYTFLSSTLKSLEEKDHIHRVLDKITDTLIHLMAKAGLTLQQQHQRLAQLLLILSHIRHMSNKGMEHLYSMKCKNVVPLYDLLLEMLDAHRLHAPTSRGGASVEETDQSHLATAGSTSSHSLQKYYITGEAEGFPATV
As to the kind of experiment: Creatine kinase (CK) assay in ERα infected HAECT-1 cells. Type of assay: cell-based. The note with it: for ER/CK % E2: efficacy relative to the maximal stimulation observed with E2. Here is the method:
(§1) ERα infected HAECT-1 cells or control cells were thawed, diluted 42× in warm EBM-BSA, plated into 96-well plates at 0.1 ml/well and incubated for 4 h at 34° C. Test compounds were added to the cells as 2× stocks in EBM-BSA containing 2 ng/ml IL-1β (R&D Systems) and plates were returned to the incubator (34° C.). After 15-20 h, 100 μl aliquots of media were removed from the cells and assayed for IL-6 content using a BioSource human IL-6 ELISA Kit. Cells were subsequently washed with 300 μl of Dulbecco's phosphate buffered saline and lysed in 50 μl of Cell Culture Lysis Reagent (Promega). Creatine kinase was determined from the rate of increase in A340 following addition of 100 μl of CK assay reagent (Sigma, cat. No 47-10) to the remainder of the cell lysate.
(§2) For IC50 and EC50 calculations, mean IL-6 or CK values versus log10 of the compound concentration were fitted to a four parameter logistic equation. The IC50/EC50 value, ‘Hill slope’, upper and lower limits of the curve were iteratively estimated.

In assay [2] the target is T1, ERα. As to the kind of experiment: IL-6 assay: inhibition of IL-1β induced IL-6 expression in ERα infected HAECT-1 cells. It counts as cell-based. The note with it: for IC50: Ad5-wt-ER infected HAECT-1 cells, IL-1β stimulated, IL-6 by ELISA; for ER/IL-6 % E2: efficacy relative to the maximal inhibition observed with E2. Here is the method:
as §1, §2
(ELISA stands for enzyme-linked immunosorbent assay.)

The mark [3] stands for this setting: Ad5-wt-ER infected HAECT-1 cells, creatine kinase in cell lysate.
[4] abbreviates: cells of the EC50 column printed in uM, read-out: ER/CK EC50.

One may read the IC50 as the concentration at which inhibition is half-maximal.

Read-outs that look alike come from different tables or passages of the source.

On to `CC[C@@H]1C(=O)N(C)c2ccc(F)cc2N1C(=O)c1ccc(O)cc1O` [Example 19, (3R)-4-(2,4-Dihydroxybenzoyl)-3-ethyl-6-fluoro-1-methyl-3,4-dihydroquinoxalin-2(1H)-one], for which the EC50 in assay [1] (setting [3]) amounted to 0.05 µM. Besides, the “ER/CK % E2” value in assay [1] was 44 % E2. In addition, in assay [2], the IC50 was 5.4 nM and the “ER/IL-6 % E2” value stood at 92 % E2.

In the case of `CC[C@@H]1C(=O)N(C)c2cc(F)ccc2N1C(=O)c1ccc(O)cc1` [Example 1, (3R)-3-Ethyl-7-fluoro-4-(4-hydroxybenzoyl)-1-methyl-3,4-dihydroquinoxalin-2(1H)-one], the EC50 in assay [1] (setting [3]) amounted to 0.089 µM. In addition, in assay [1], the “ER/CK % E2” value stood at 16 % E2. In assay [2], the IC50 was 74 nM and the “ER/IL-6 % E2” value is reported as 99 % E2.

As for `CC[C@H]1C(=O)N(C)c2ccc(F)cc2N1S(=O)(=O)c1ccc(O)cc1` [Example 25, (3S)-3-Ethyl-6-fluoro-4-[(4-hydroxyphenyl)sulfonyl]-1-methyl-3,4-dihydroquinoxalin-2(1H)-one], in assay [1] (setting [4]), the EC50 is more than 3 µM. For the same compound, in assay [1], the “ER/CK % E2” value is 35 % E2. Further, in assay [2], the IC50 is 681 nM and the “ER/IL-6 % E2” value is 108 % E2.

`CC[C@@H]1C(=O)N(Cc2ccccc2)c2cc(F)ccc2N1C(=O)c1ccc(O)cc1` [Example 2, (3R)-1-Benzyl-3-Ethyl-7-fluoro-4-(4-hydroxybenzoyl)-3,4-dihydroquinoxalin-2(1H)-one]: in assay [1] (setting [4]), the EC50 was more than 10 µM. Also, in assay [1], the “ER/CK % E2” value was 24 % E2. Moreover, in assay [2], the IC50 amounted to 1230 nM and the “ER/IL-6 % E2” value was determined as 80 % E2.

In turn, `CC[C@H]1C(=O)N(C)c2cc(F)ccc2N1S(=O)(=O)c1ccc(O)cc1` [Example 29, (3S)-3-Ethyl-7-fluoro-4-[(4-hydroxyphenyl)sulfonyl]-1-methyl-3,4-dihydroquinoxalin-2(1H)-one] gave an EC50 in assay [1] (setting [3]) of 0.344 µM. The “ER/CK % E2” value in assay [1] came to 20 % E2. Moreover, in assay [2], the IC50 amounted to 1170 nM and the “ER/IL-6 % E2” value was 85 % E2.

For the compound `CC[C@@H]1C(=O)N(CC)c2ccc(F)cc2N1C(=O)c1ccc(O)cc1O` [Example 18, (3R)-4-(2,4-Dihydroxybenzoyl)-1,3-diethyl-6-fluoro-3,4-dihydroquinoxalin-2(1H)-one], in assay [1] (setting [3]), the EC50 amounted to 0.169 µM. The “ER/CK % E2” value in assay [1] is reported as 36 % E2. Besides, in assay [2], the IC50 was determined as 20 nM and the “ER/IL-6 % E2” value is 96 % E2.

In assay [1] (setting [3]), `CC[C@@H]1C(=O)N(Cc2ccccc2)c2cc(F)ccc2N1C(=O)c1cccc(O)c1` [Example 5, (3R)-1-Benzyl-3-ethyl-7-fluoro-4-(3-hydroxybenzoyl)-3,4-dihydroquinoxalin-2(1H)-one] came in with an EC50 of 0.255 µM. Further, the “ER/CK % E2” value in assay [1] is 17 % E2. For the same compound, in assay [2], 542 nM corresponded to half-maximal inhibition (IC50) and the “ER/IL-6 % E2” value was found to be 65 % E2.

In turn, `CC[C@@H]1C(=O)N(C)c2cc(F)ccc2N1C(=O)c1cccc(O)c1` [Example 4, (3R)-3-Ethyl-7-fluoro-4-(3-hydroxybenzoyl)-1-methyl-3,4-dihydroquinoxalin-2(1H)-one] returned an EC50 in assay [1] (setting [3]) of 0.126 µM. In addition, in assay [1], the “ER/CK % E2” value came to 19 % E2. For the same compound, in assay [2], the IC50 worked out at 520 nM and the “ER/IL-6 % E2” value came to 57 % E2.

With `CC[C@@H]1C(=O)N(CC)c2cc(F)ccc2N1C(=O)c1ccc(O)cc1` [Example 3, (3R)-1,3-Diethyl-7-fluoro-4-(4-hydroxybenzoyl)-3,4-dihydroquinoxalin-2(1H)-one], in assay [1] (setting [3]), the EC50 stood at 0.103 µM. The “ER/CK % E2” value in assay [1] came to 29 % E2. In addition, in assay [2], the IC50 worked out at 72 nM and the “ER/IL-6 % E2” value is recorded as 104 % E2.
